From patent US6416752B1, “Termite bait composition and method” (Whitmire Micro-Gen Research Laboratories, Inc., priority 2001, dated 2002)
Several values for one entry are separate records, joined by “and”; a condition that tells them apart may be missing. Equal entries are not always repeated.

Test system: Reticulitermes virginicus
Test: standard choice box test of termite bait compositions with killing agents
Format: in vivo
Settings: for Percent Survivorship: choice with untreated pine wood; for Amount of Wood Removed: untreated pine wood blocks; for termites killed: after 25 days
Protocol: The termite bait active ingredients or killing agents diflubenzuron, emamectin benzoate and thiamethoxam were tested for their efficacy. The termite species tested was Reticulitermes virginicus. The methodology employed was the standard “choice box” test used in Example 1 in which termites were released into a central chamber with untreated wood. The central chamber was connected, using Tygon tubing (2 mm I D), with peripheral feeding chambers containing a termite bait composition of the invention (microcrystalline cellulose powder having an average particle size of 20 micrometers and a termite killing agent) or untreated pine wood. Each replicate was given the choice of one gram of the treated cellulose powder or three blocks (1 cm) of untreated pine wood. At the end of 25 or 37 days, the number of live termites was counted. At the same time, the amount of pine wood or termite bait composition consumed was measured. The treatments were replicated two times.

[1] = 25 days in bioassay, 0.05% in microcrystalline cellulose powder

O=C(NC(=O)c1c(F)cccc1F)Nc1ccc(Cl)cc1 [Dimilin, diflubenzuron]
Percent Survivorship (37 days in bioassay, 0.5% in microcrystalline cellulose powder): 0.1% and 0% | control of termites (after 37 days exposure): almost complete control

CN1COCN(Cc2cnc(Cl)s2)/C1=N\[N+](=O)[O-] [Thiamethoxam, thiamethoxam]
Amount of Cellulose Powder Removed (600 h): 0.01 g | Percent Survivorship [1]: 0% | Amount of Wood Removed (25 days, 0.05%): 0 g | termites killed: 100%

emamectin benzoate
Percent Survivorship [1]: 0% | Amount of Cellulose Powder Removed (25 days, 0.05%, one gram of treated cellulose powder offered): 0.07 g and 0.13 g | Amount of Wood Removed (25 days, 0.05%): 0 g | termites killed: 100%
